*1 amine or outer side, *2 acyl side, *3 side chain or, on linkers, in order; H or OH if unused. Where a SMILES comes first, the peptide text is derived from it. Bridges are numbered along the chain shown (N, C = ends). [ ]: non-standard residue; d: D form. The star is where a group is joined. ξ: configuration not given here. Trp(1-CH2COOH) = N[C@@H](Cc1cn(CC(=O)O)c2ccccc12)C(=O)O; Phe(3-CF3) = N[C@@H](Cc1cccc(C(F)(F)F)c1)C(=O)O; Phe(4-COOH) = N[C@@H](Cc1ccc(C(=O)O)cc1)C(=O)O; Bip = N[C@@H](Cc1ccc(-c2ccccc2)cc1)C(=O)O; Phe(3-CN) = N#Cc1cccc(C[C@H](N)C(=O)O)c1; Phe(3-Me) = Cc1cccc(C[C@H](N)C(=O)O)c1; γGlu = O=C(O)[C@H](CCC(=O)[*:2])N[*:1]; Abu(3S-NH2) = C[C@H](N)[C@H](N)C(=O)O; NH(CH2)12COOH = O=C(O)CCCCCCCCCCCCN*; NMeAEEA = CN(CCOCCOCC(=O)[*:2])[*:1]; X2 = CC(C)=C[C@H](N[*:1])C(=O)[*:2]; Val(3-OH) = CC(C)(O)[C@H](N)C(=O)O; hhGln = NC(=O)CCCC[C@H](N)C(=O)O; 4Pal = N[C@@H](Cc1ccncc1)C(=O)O; Cha = N[C@@H](CC1CCCCC1)C(=O)O; Cit = NC(=O)NCCC[C@H](N)C(=O)O; Thr(3ξ) = CC(O)[C@H](N)C(=O)O; Carboxymethyl = O=C(O)C*; NMeA = CN[C@@H](C)C(=O)O; Orn = NCCC[C@H](N)C(=O)O; Pra = C#CC[C@H](N)C(=O)O; Aun = NCCCCCCCCCCC(=O)O; Dab = NCC[C@H](N)C(=O)O; Dap = NC[C@H](N)C(=O)O; AEEA = NCCOCCOCC(=O)O

The target in one assay is T1, PD-1/PD-L1 interaction (PE-labeled human PD-L1-Ig binding to Jurkat cell line over-expressing human PD-1) (Homo sapiens, UniProt Q15116).
T1 construct: expressed in transfected cells; host or cells: Jurkat
T1 sequence (Q15116 25-288): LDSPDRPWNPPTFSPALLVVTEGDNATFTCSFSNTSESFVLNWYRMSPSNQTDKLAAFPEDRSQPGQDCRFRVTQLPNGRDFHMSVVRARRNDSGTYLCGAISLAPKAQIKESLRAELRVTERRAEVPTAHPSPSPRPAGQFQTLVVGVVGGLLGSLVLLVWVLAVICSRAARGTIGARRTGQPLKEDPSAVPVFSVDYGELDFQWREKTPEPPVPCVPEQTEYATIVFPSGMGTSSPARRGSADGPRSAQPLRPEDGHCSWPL
The assay can be described thus: Jurkat-PD-1 Cell Binding High-Content Screening Assay (CBA). Conditions: Jurkat-hPD-1 cells, PE-labeled PD-L1-Ig 20 nM final; read-out: Jurkat HPD1 PDL1 IC50. A digest of the protocol:
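High-content imaging read-out of PE-PD-L1-Ig binding (20 nM final, 1 h) to Jurkat-hPD-1 cells, after 2 h compound exposure at 37 °C in DMEM with 10% FCS. Nuclei counterstained with Hoechst 33342 after paraformaldehyde fixation.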
As to `C#CC[C@H](NC(=O)[C@H](CCN)NC(=O)[C@@H]1CSCC(=O)N[C@@H]([C@@H](C)O)C(=O)N[C@@H](Cc2ccc(OCC(=O)O)cc2)C(=O)N[C@@H](CC(=O)O)C(=O)N[C@@H](Cc2cccc(C(F)(F)F)c2)C(=O)N[C@@H](Cc2ccc(C(=O)O)cc2)C(=O)N[C@@H](Cc2ccc(-c3ccccc3)cc2)C(=O)N[C@@H](Cc2ccc(OCC(=O)O)cc2)C(=O)N(C)[C@@H](C)C(=O)N[C@H](CC(C)C)C(=O)N[C@@H](CCN)C(=O)N[C@@H](CC2CCCCC2)C(=O)N[C@@H](C(C)C)C(=O)N[C@@H]([C@@H](C)O)C(=O)N1)C(=O)NCCCCCCCCCCC(=O)O` [Example 1238] ({CH2CO}-TY(Carboxymethyl)D[Phe(3-CF3)][Phe(4-COOH)][Bip]Y(Carboxymethyl)[NMeA][dL][Dab][Cha]VTC[Dab][Pra][Aun]-OH; thioether N-14), the IC50 (usually the concentration needed to halve the response being measured) came to 14.9 nM.
The same measure, in the same setting: to `CC(C)C[C@@H]1NC(=O)[C@H](Cc2c[nH]c3ccccc23)NC(=O)[C@H](CC(=O)O)NC(=O)[C@H](Cc2ccc(C(=O)O)cc2)NC(=O)[C@H](Cc2ccc(OCC(=O)O)cc2)NC(=O)CSC[C@@H](C(=O)NCCOCCOCC(=O)NCCCCCCCCCCC(=O)O)NC(=O)[C@H](CCCNC(N)=O)NC(=O)[C@H](C(C)C)NC(=O)[C@H](CC2CCCCC2)NC(=O)[C@H](CCN)NC(=O)[C@@H](CC(C)C)NC(=O)[C@H](C)N(C)C(=O)[C@H](Cc2ccc(O)cc2)NC(=O)[C@H](Cc2ccc(-c3ccccc3)cc2)NC1=O` [Example 1101] ({CH2CO}-Y(Carboxymethyl)[Phe(4-COOH)]DWL[Bip]Y[NMeA][dL][Dab][Cha]V[Cit]C[AEEA][Aun]-OH; thioether N-14) belongs 48 nM.
Still for that read-out and setting: under `Cc1cccc(C[C@@H]2NC(=O)[C@H](CC(=O)O)NC(=O)[C@H](Cc3ccc(OCC(=O)O)cc3)NC(=O)[C@H](CN)NC(=O)CSC[C@@H](C(=O)NCC(=O)N[C@@H](CN)C(=O)NCC(=O)NCCCCCCCCCCC(=O)O)NC(=O)[C@H](CO)NC(=O)[C@H](C(C)C)NC(=O)[C@H](CC(C)C)NC(=O)[C@H](CC(N)=O)NC(=O)[C@@H](CC(C)C)NC(=O)[C@H](C)N(C)C(=O)[C@H](C(C)C)NC(=O)[C@H](Cc3ccc(-c4ccccc4)cc3)NC(=O)[C@H](CC(C)C)NC2=O)c1` [Example 1052] ({CH2CO}-[Dap]Y(Carboxymethyl)D[Phe(3-Me)]L[Bip]V[NMeA][dL]NLVSCG[Dap]G[Aun]-OH; thioether N-14) stands 18.4 nM; under `Cc1cccc(C[C@@H]2NC(=O)[C@H](CC(=O)O)NC(=O)[C@H](Cc3ccc(OCC(=O)O)cc3)NC(=O)[C@H](Cc3ccncc3)NC(=O)CSC[C@@H](C(=O)N[C@@H](CCN)C(=O)NCCCCCCCCCCC(=O)O)NC(=O)[C@H](CO)NC(=O)[C@H](C(C)(C)O)NC(=O)[C@H](CC3CCCCC3)NC(=O)[C@H](CCN)NC(=O)[C@@H](CC(C)C)NC(=O)[C@H](C)N(C)C(=O)[C@H](Cc3ccc(OCC(=O)O)cc3)NC(=O)[C@H](Cc3ccc(-c4ccccc4)cc3)NC(=O)[C@H](Cc3ccc(OCC(=O)O)cc3)NC2=O)c1` [Example 1287] ({CH2CO}-[4Pal]Y(Carboxymethyl)D[Phe(3-Me)]Y(Carboxymethyl)[Bip]Y(Carboxymethyl)[NMeA][dL][Dab][Cha][Val(3-OH)]SC[Dab][Aun]-OH; thioether N-14), 9 nM; under `CC(C)C[C@@H]1NC(=O)[C@H](Cc2c[nH]c3ccccc23)NC(=O)[C@H](CC(=O)O)NC(=O)[C@H](Cc2ccc(C(=O)O)cc2)NC(=O)[C@H](Cc2ccc(OCC(=O)O)cc2)NC(=O)CSC[C@@H](C(=O)N[C@@H](CCCN)C(=O)NCCOCCOCC(=O)NCCCCCCCCCCC(=O)O)NC(=O)[C@H](CCCCC(N)=O)NC(=O)[C@H](C(C)C)NC(=O)[C@H](CC2CCCCC2)NC(=O)[C@H](CCN)NC(=O)[C@@H](CC(C)C)NC(=O)[C@H](C)N(C)C(=O)[C@H](C(C)C)NC(=O)[C@H](Cc2ccc(-c3ccccc3)cc2)NC1=O` [Example 2128] ({CH2CO}-Y(Carboxymethyl)[Phe(4-COOH)]DWL[Bip]V[NMeA][dL][Dab][Cha]V[hhGln]C[Orn][AEEA][Aun]-OH; thioether N-14), 8.9 nM.
In the case of `CC(=O)NCCCC[C@@H]1NC(=O)[C@H](Cc2ccc(-c3ccccc3)cc2)NC(=O)[C@H](C(C)C)NC(=O)[C@H](Cc2cccc(C)c2)NC(=O)[C@H](CC(=O)O)NC(=O)[C@H](Cc2ccc(OCC(=O)O)cc2)NC(=O)[C@H](C(C)O)NC(=O)CSC[C@@H](C(=O)N(C)CCOCCOCC(=O)NCCCCCCCCCCC(=O)O)NC(=O)[C@H](C(C)C)NC(=O)[C@H](C(C)C)NC(=O)[C@H](CC2CCCCC2)NC(=O)[C@H](CCN)NC(=O)[C@@H](CC(C)C)NC(=O)[C@H](C)N(C)C1=O` (stereo partly drawn) [Example 2358] ({CH2CO}-[Thr(3ξ)]Y(Carboxymethyl)D[Phe(3-Me)]V[Bip]K(Ac)[NMeA][dL][Dab][Cha]VVC[NMeAEEA][Aun]-OH; thioether N-14), the concentration for half-maximal inhibition (IC50) was 16.6 nM.
As to `CC(C)C[C@H]1NC(=O)[C@H](C)N(C)C(=O)[C@H](Cc2ccc(OCC(=O)O)cc2)NC(=O)[C@H](Cc2ccc(-c3ccccc3)cc2)NC(=O)[C@H](Cc2ccc(OCC(=O)O)cc2)NC(=O)[C@H](Cc2cccc(C#N)c2)NC(=O)[C@H](CC(=O)O)NC(=O)[C@H](Cc2ccc(OCC(=O)O)cc2)NC(=O)[C@H]([C@@H](C)O)NC(=O)CSC[C@@H](C(=O)N[C@@H](CCN)C(=O)NCCOCCOCC(=O)NCCCCCCCCCCC(=O)O)NC(=O)[C@H](CCC(=O)O)NC(=O)[C@H](C(C)C)NC(=O)[C@H](CC2CCCCC2)NC(=O)[C@H](CCN)NC1=O` [Example 1230] ({CH2CO}-TY(Carboxymethyl)D[Phe(3-CN)]Y(Carboxymethyl)[Bip]Y(Carboxymethyl)[NMeA][dL][Dab][Cha]VEC[Dab][AEEA][Aun]-OH; thioether N-14), the IC50 was 128 nM.
Still for that read-out and setting: under `Cc1cccc(C[C@@H]2NC(=O)[C@H](CC(=O)O)NC(=O)[C@H](Cc3cn(CC(=O)O)c4ccccc34)NC(=O)[C@H]([C@@H](C)O)NC(=O)CSC[C@@H](C(=O)N[C@@H](CCN)C(=O)NCCCCCCCCCCC(=O)O)NC(=O)[C@H]([C@@H](C)O)NC(=O)[C@H](C(C)C)NC(=O)[C@H](CC3CCCCC3)NC(=O)[C@H](CCN)NC(=O)[C@@H](CC(C)C)NC(=O)[C@H](C)N(C)C(=O)[C@H](Cc3ccc(OCC(=O)O)cc3)NC(=O)[C@H](Cc3ccc(-c4ccccc4)cc3)NC(=O)[C@H](Cc3ccc(OCC(=O)O)cc3)NC2=O)c1` [Example 1304] ({CH2CO}-T[Trp(1-CH2COOH)]D[Phe(3-Me)]Y(Carboxymethyl)[Bip]Y(Carboxymethyl)[NMeA][dL][Dab][Cha]VTC[Dab][Aun]-OH; thioether N-14) stands 44.6 nM; under `Cc1cccc(C[C@@H]2NC(=O)[C@H](CC(=O)O)NC(=O)[C@H](Cc3ccc(OCC(=O)O)cc3)NC(=O)[C@H]([C@@H](C)O)NC(=O)CSC[C@@H](C(=O)N[C@@H](CCN)C(=O)NCCOCCOCC(=O)NCCCCCCCCCCC(=O)O)NC(=O)[C@H]([C@@H](C)O)NC(=O)[C@H](C(C)C)NC(=O)[C@H](CC3CCCCC3)NC(=O)[C@H](CCC(=O)O)NC(=O)[C@@H](CC(C)C)NC(=O)[C@H](C)N(C)C(=O)[C@H](Cc3ccc(OCC(=O)O)cc3)NC(=O)[C@H](Cc3ccc(-c4ccccc4)cc3)NC(=O)[C@H](Cc3ccc(OCC(=O)O)cc3)NC2=O)c1` [Example 1375] ({CH2CO}-TY(Carboxymethyl)D[Phe(3-Me)]Y(Carboxymethyl)[Bip]Y(Carboxymethyl)[NMeA][dL]E[Cha]VTC[Dab][AEEA][Aun]-OH; thioether N-14), 31.8 nM.
In the case of `CC(=O)NCCCC[C@@H]1NC(=O)[C@H](C(C)(C)O)NC(=O)[C@H](CC2CCCCC2)NC(=O)[C@H](CCN)NC(=O)[C@@H](CC(C)C)NC(=O)[C@H](C)N(C)C(=O)[C@H](CCCNC(N)=O)NC(=O)[C@H](Cc2ccc(-c3ccccc3)cc2)NC(=O)[C@H](Cc2ccc(C(=O)O)cc2)NC(=O)[C@H](Cc2cccc(C(F)(F)F)c2)NC(=O)[C@H](CC(=O)O)NC(=O)[C@H](Cc2ccc(OCC(=O)O)cc2)NC(=O)[C@H]([C@H](C)N)NC(=O)CSC[C@@H](C(=O)N[C@@H](CCN)C(=O)NCCOCCOCC(=O)N[C@@H](CCC(=O)NCCOCCOCC(=O)NCCCCCCCCCCCCC(=O)O)C(=O)O)NC1=O` [Example 1206] ({CH2CO}-[Abu(3S-NH2)]Y(Carboxymethyl)D[Phe(3-CF3)][Phe(4-COOH)][Bip][Cit][NMeA][dL][Dab][Cha][Val(3-OH)]K(Ac)C[Dab][AEEA][γGlu][AEEA]-{NH(CH2)12COOH}; thioether N-14), the concentration for half-maximal inhibition (IC50) is 6.9 nM.
On the same count and under the same terms, under `CC(C)=C[C@@H]1NC(=O)[C@H](Cc2cccc(C)c2)NC(=O)[C@H](CC(=O)O)NC(=O)[C@H](Cc2ccc(C(=O)O)cc2)NC(=O)[C@H](CCN)NC(=O)CSC[C@@H](C(=O)N[C@@H](CCN)C(=O)NCCCCCCCCCCC(=O)O)NC(=O)[C@H](CO)NC(=O)[C@H](C(C)(C)O)NC(=O)[C@H](CC2CCCCC2)NC(=O)[C@H](CCN)NC(=O)[C@@H](CC(C)C)NC(=O)[C@H](C)N(C)C(=O)[C@H](Cc2ccc(OCC(=O)O)cc2)NC(=O)[C@H](Cc2ccc(-c3ccccc3)cc2)NC1=O` [Example 1303] ({CH2CO}-[Dab][Phe(4-COOH)]D[Phe(3-Me)][X2][Bip]Y(Carboxymethyl)[NMeA][dL][Dab][Cha][Val(3-OH)]SC[Dab][Aun]-OH; thioether N-14) stands 26.7 nM.

Still in this assay, the particulars now being: PE-labeled PD-L1-Ig 20 nM final, Jurkat-hPD-1 cells; read-out: Jurkat HPD1 PDL1 IC50.
Turning to `Cc1cccc(C[C@@H]2NC(=O)[C@H](CC(=O)O)NC(=O)[C@H](Cc3ccc(OCC(=O)O)cc3)NC(=O)[C@H](C(C)O)NC(=O)CSC[C@@H](C(=O)N[C@@H](CCN)C(=O)NCCOCCOCC(=O)NCCCCCCCCCCC(=O)O)NC(=O)[C@H](Cc3cnc[nH]3)NC(=O)[C@H](C(C)(C)O)NC(=O)[C@H](CC3CCCCC3)NC(=O)[C@H](CCN)NC(=O)[C@@H](CC(C)C)NC(=O)[C@H](C)N(C)C(=O)[C@H](Cc3ccc(OCC(=O)O)cc3)NC(=O)[C@H](Cc3ccc(-c4ccccc4)cc3)NC(=O)[C@H](Cc3ccc(OCC(=O)O)cc3)NC2=O)c1` (stereo partly drawn) [Example 2470] ({CH2CO}-[Thr(3ξ)]Y(Carboxymethyl)D[Phe(3-Me)]Y(Carboxymethyl)[Bip]Y(Carboxymethyl)[NMeA][dL][Dab][Cha][Val(3-OH)]HC[Dab][AEEA][Aun]-OH; thioether N-14), the half-inhibitory concentration (IC50) turned out to be 8.7 nM.

Values taken from US20260070945A1, “MACROCYCLIC IMMUNOMODULATORS” (Bristol-Myers Squibb Company, priority 2022, published 2026).
